Reference: patent US8796336B2, “Methoxypolyethylene glycol chelate and uses thereof” (Eastern Virginia Medical School, priority 2006, dated 2014)

Tests used:
[1] = test system: retinal ganglion cells (RGC); assay: NMDA retinal damage model, scotopic electroretinogram A and B waves; type: in vivo, rats; details: for A wave, % Baseline, Intravitreal / B wave, % Baseline, Intravitreal: intravitreal 2 mM co-administered with 2 ul 10 mM NMDA; for A wave, % Baseline, Topical / B wave, % Baseline, Topical: topical 100 mM, 20 μl 3 times per day, 5 days prior and 3 days post-NMDA
Procedure: Changes in electroretinogram (ERG) A and B waves have been used as indicators of RGC damage. To examine RGC neuroprotection, 2 ul intravitreal injections of 10 mM NMDA, sufficient to change ERG A and B-waves within 2 weeks, were challenged with co-administered intravitreal (2 mM) or topical 100 mM MPDTE, MPSEDE and amifostine in normal rats unilaterally. For topical administration, rats were pretreated for 5 days prior and 3 days post-NMDA administration with the agents at a frequency of 3 times per day with 20 μl agent. Scotopic ERG changes were measured in normal rats. Rats were dark adapted for at least 4 hrs. Eyes were dilated with atropine after which proparacaine and methylcellulose gel were applied topically. Custom made AgCl electrodes (64-1317, Warner Instruments, Hamden, Conn.) were placed on the apex of the cornea. Stimuli consisted of 10-microsec flashes of unattenuated white light generated by Ganzfield bowl photo stimulator (Grass Instruments, PS22, Quincy, Mass.). Data from each eye was recorded separately with a driver amplifier (Grass Instruments, Model 7DAF Polygraph, Quincy, Mass.). Data was acquired digitally via DASYLab (Bedford, N.H.). The contralateral normal eye served as an age matched negative control, e.g. response in a normal, undamaged eye. Differences in amplitude of the A-wave and B-waves between the treated eye and the contralateral eye and between treatment groups were calculated.

[2] = test system: intraocular pressure (IOP); assay: Topical application for IOP measurements on rat surgical glaucoma (ocular hypertensive) model; type: in vivo, male SpragueDawley rats
Procedure: Ocular hypertension was induced in 9 male SpragueDawley rats, weighing between 400 to 500 grams. Under general anesthesia with acepromazine maleate (12 mg/Kg) and ketamine (80 mg/Kg), IP, and topical proparacaine (0.5%), dissection of the conjunctiva was made with fine cuts. To reduce the stimulus for revascularization or neovascularization, dissection of the right eye was limited to the area immediately surrounding the vortex veins. Three of four vortex veins were exposed and ligated using 9.0 nylon sutures. Criterion for inclusion into the study was an intraocular pressure (IOP) increase of 5 mm Hg or more when compared to […] baseline IOP. Within 6 weeks, the IOP of all the operated eyes increased at least 5 mm Hg compared to baseline. National Institutes of Health Guidelines and Association for Research in Vision and Ophthalmology statement for the Use and Care of Animals were followed in this study.
Prior to initiation of treatment, baseline IOP was obtained in glaucoma rat models. IOP was measured via a specially modified Goldmann applanation tonometer (HAAG-STREIT, Bern, Switzerland) under sedation. Measurements are averages of two consecutive readings and were made at the same time of day and by the same observers.
Rats were treated topically with 20 μl of MP compounds (0.3-100 mM; n=3-6) on the operated eyes. […]

H9C2 cells = assay: Doxorubicin chemotoxicity on H9C2 cells, intracellular calcium by fluo-3 AM; type: cell-based, rat; details: 10 min exposure to 50 μM doxorubicin, cells without MPDTE pretreatment
Procedure: H9C2 cells, which are used as models for rat striated muscle, were cultured using techniques described previously (Lattanzio, F A Jr., Tiangco, D., Osgood, C., Beebe, S., Kerry, J. and Hargrave B Y. Cocaine increases intracellular calcium and reactive oxygen species, depolarizes mitochondria, and activates genes associated with heart failure and remodeling. Cardiovascular Toxiology (20050 5: 377-389). Fluorescent calcium indicator and ROS indicator were used to determine if the reported increase in intracellular calcium and ROS activity occurred and whether these changes were reduced in the presence of 2 mM MPSEDE or MPDTE. Cells were measured using a Zeiss 510 fluorescent confocal microscope as described in Lattanzio et al, 2005.
H9C2 cells, a rat myocyte model, were cultured in MEM until confluent using techniques described in Lattanzio et al, 2005. The cells were treated with 5 μM fluo-3 AM, a fluorescent calcium indicator, for 30 min at 37 C, washed and then exposed to 50 μM doxorubicin (a supermaximal toxic dose), in the presence or absence of 30 min pretreatment with 2 mM MPDTE. Doxorubicin increases intracellular calcium in cardiac cells by disrupting calcium homeostasis through the production of free radical damage and subsequent membrane damage. […] Protection may have occurred due to a combination of free radical scavenging and calcium chelation.

Row | Compound | A wave, % Baseline, Intravitreal [1] [% Baseline] | B wave, % Baseline, Intravitreal [1] [% Baseline] | A wave, % Baseline, Topical [1] [% Baseline] | B wave, % Baseline, Topical [1] [% Baseline] | reduction of NMDA damage ([1]; both intravitreal and topical administration (Table 1)) | reduction of NMDA damage ([1]; co-administration with NMDA, at the dose tested) | IOP reduction ([2]; single topical dose of 10-100 mM, FIG. 5-7) | IOP reduction of the components ([2]; MP or DTE administered alone or together, not as great as with MPDTE, FIG. 10) | increase of intracellular calcium (H9C2 cells) [%]
1 | CN[C@H](CC(=O)O)C(=O)O [NMDA, N-methyl-D-aspartate] | 51.2 | 68.4 | 51.2 | 68.4 |  |  |  |  | 
2 | methoxypolyethlene glycol thioester of ethylenediaminetetraacetic acid methyl triester [MPSEDE] | 76.2 | 69.6 | 95.9 | 93.7 | significantly reduced NMDA damage | trend to reduce NMDA damage, but this was not significant | significantly reduced IOP |  | 
3 | polyethylene glycol monomethyl ether [MP] |  |  |  |  |  |  |  | reduction in IOP | 
4 | NCCCNCCSP(=O)(O)O [amifostine, S-2-[3-aminopropylamino]ethylphosphorothioate] | 94.2 | 83.3 | 69.4 | 99.3 |  |  |  |  | 
5 | COc1cccc2c1C(=O)c1c(O)c3c(c(O)c1C2=O)C[C@@](O)(C(=O)CO)C[C@@H]3O[C@H]1C[C@H](N)[C@H](O)[C@H](C)O1 [doxorubicin] |  |  |  |  |  |  |  |  | 59.4
